We go through seven cell lines from the supplement of paper PMC10307832.

Common to all, as to assay: relative viability (nuclei count vs DMSO), 5 days (fraction); higher = more cells survive
Compound in experiment [1]: O=C(/C=C/c1ccccc1)NC(NC(=S)Nc1cccc2cccnc12)C(Cl)(Cl)Cl [Salubrinal] + NC(=O)Nc1cc(-c2cccc(F)c2)sc1C(=O)N[C@H]1CCCNC1 [AZD7762] (partner 0.2 µM)
In a few lines: (§1)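 Cells from lung cancer lines were seeded into 1536-well plates and, one day later, dosed by pin tool. Treatments were either a single drug or a fixed dose of an anchor drug with five library-drug doses (not always all listed) in √10 steps. After 5 days, nuclei were stained in a one-step fixation (final 0.05% Triton X-100, 1% formaldehyde, 1 ug/ml Hoechst) and counted on 4× images, and relative viability is the treated-to-vehicle nuclei ratio, as the median of duplicate plates.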

Compound in experiment [2]: Cc1ccc2nc(NCCN)c3ncc(C)n3c2c1 + CS(=O)(=O)CCNCc1ccc(-c2ccc3ncnc(Nc4ccc(OCc5cccc(F)c5)c(Cl)c4)c3c2)o1 [Lapatinib] (partner 2 µM)
Put shortly: as §1

Compound in experiment [3]: O=C(/C=C/c1ccccc1)NC(NC(=S)Nc1cccc2cccnc12)C(Cl)(Cl)Cl [Salubrinal] + COc1cccc2cc(-c3nc([C@H]4CC[C@H](C(=O)O)CC4)n4ncnc(N)c34)[nH]c12 [OSI-027] (partner 0.5 µM)
Put shortly:
as §1

Compound in experiment [4]: Cc1ccc2nc(NCCN)c3ncc(C)n3c2c1 + COc1cc2c(Oc3ccc(NC(=O)C4(C(=O)Nc5ccc(F)cc5)CC4)cc3F)ccnc2cc1OCCCN1CCOCC1 [Foretinib] (partner 0.25 µM)
Put shortly: as §1

In the case of NCI-H1944, the relative viability in experiment [1] (first compound 0.08 µM) stood at 0.563; in experiment [1] (first compound 0.253 µM) it was 0.471; in experiment [1] (first compound 0.8 µM), 0.472; in experiment [1] (first compound 2.53 µM), 0.433; in experiment [1] (first compound 8 µM), 0.596; in experiment [2] (first compound 0.04 µM) it was 0.772. For the same cell line, the relative viability in experiment [2] (first compound 0.1265 µM) was determined as 0.805; in experiment [2] (first compound 0.4 µM), 0.642; in experiment [2] (first compound 1.265 µM) it was 0.978; in experiment [2] (first compound 4 µM), 0.758; in experiment [3] (first compound 0.08 µM) it was 0.384; in experiment [3] (first compound 0.253 µM), 0.389. For the same cell line, the relative viability in experiment [3] (first compound 0.8 µM) was determined as 0.483; in experiment [3] (first compound 2.53 µM), 0.387; in experiment [3] (first compound 8 µM), 0.406; in experiment [4] (first compound 0.04 µM), 0.896; in experiment [4] (first compound 0.1265 µM), 0.862; in experiment [4] (first compound 0.4 µM), 0.773. Also, the relative viability in experiment [4] (first compound 1.265 µM) was determined as 0.9; in experiment [4] (first compound 4 µM) it was 0.958.
On to NCI-H1975, for which the relative viability in experiment [1] (first compound 0.08 µM) came to 0.691; in experiment [1] (first compound 0.253 µM), 0.611; in experiment [1] (first compound 0.8 µM) it was 0.853; in experiment [1] (first compound 2.53 µM) it was 0.744; in experiment [1] (first compound 8 µM), 0.601; in experiment [2] (first compound 0.04 µM), 1.01. Also, the relative viability in experiment [2] (first compound 0.1265 µM) stood at 0.925; in experiment [2] (first compound 0.4 µM), 0.935; in experiment [2] (first compound 1.265 µM) it was 0.95; in experiment [2] (first compound 4 µM) it was 0.849; in experiment [3] (first compound 0.08 µM) it was 0.959; in experiment [3] (first compound 0.253 µM), 0.567. The relative viability in experiment [3] (first compound 0.8 µM) amounted to 0.891; in experiment [3] (first compound 2.53 µM), 0.703; in experiment [3] (first compound 8 µM), 0.405; in experiment [4] (first compound 0.04 µM) it was 0.992; in experiment [4] (first compound 0.1265 µM), 0.981; in experiment [4] (first compound 0.4 µM), 0.895. Besides, the figures for the relative viability in experiment [4] (first compound 1.265 µM) and in experiment [4] (first compound 4 µM) were 0.947 and 0.882, respectively.
As for NCI-H1993, the relative viability came out at 0.909 in experiment [1] (first compound 0.08 µM); 0.744 in experiment [1] (first compound 0.253 µM); 0.871 in experiment [1] (first compound 0.8 µM); 0.612 in experiment [1] (first compound 8 µM); 0.844 in experiment [2] (first compound 0.04 µM); 0.887 in experiment [2] (first compound 0.1265 µM). The relative viability was 0.695 in experiment [2] (first compound 0.4 µM); 0.74 in experiment [2] (first compound 1.265 µM); 0.629 in experiment [2] (first compound 4 µM); 0.58 in experiment [3] (first compound 0.08 µM); 0.564 in experiment [3] (first compound 0.253 µM); 0.509 in experiment [3] (first compound 0.8 µM). Besides, the relative viability turned out to be 0.495 in experiment [3] (first compound 2.53 µM); 0.584 in experiment [3] (first compound 8 µM); 0.904 in experiment [4] (first compound 0.04 µM); 0.685 in experiment [4] (first compound 0.1265 µM); 0.748 in experiment [4] (first compound 0.4 µM); 0.626 in experiment [4] (first compound 1.265 µM). In addition, the relative viability in experiment [4] (first compound 4 µM) is 0.698.
Consider NCI-H2085, for which the relative viability in experiment [1] (first compound 0.08 µM) was 1.14; in experiment [1] (first compound 0.253 µM), 0.905; in experiment [1] (first compound 0.8 µM), 0.944; in experiment [1] (first compound 2.53 µM), 0.946; in experiment [1] (first compound 8 µM) it was 0.932; in experiment [2] (first compound 0.04 µM) it was 0.91. Further, the relative viability in experiment [2] (first compound 0.1265 µM) was determined as 0.771; in experiment [2] (first compound 0.4 µM) it was 0.728; in experiment [2] (first compound 1.265 µM), 0.785; in experiment [2] (first compound 4 µM), 0.817; in experiment [3] (first compound 0.08 µM) it was 0.793; in experiment [3] (first compound 0.253 µM), 0.629. Further, the relative viability in experiment [3] (first compound 0.8 µM) amounted to 0.848; in experiment [3] (first compound 2.53 µM), 0.712; in experiment [3] (first compound 8 µM) it was 0.717; in experiment [4] (first compound 0.04 µM), 0.903; in experiment [4] (first compound 0.1265 µM), 1.14; in experiment [4] (first compound 0.4 µM), 0.941. In addition, the relative viability in experiment [4] (first compound 1.265 µM) amounted to 0.929; in experiment [4] (first compound 4 µM) it was 0.946.
Consider NCI-H2087, for which the relative viability in experiment [1] (first compound 0.08 µM) is 1.44; in experiment [1] (first compound 0.253 µM), 0.751; in experiment [1] (first compound 0.8 µM), 1.44; in experiment [1] (first compound 2.53 µM), 1.31; in experiment [1] (first compound 8 µM), 1.29; in experiment [2] (first compound 0.04 µM), 1.25. The relative viability was found to be 1.14 in experiment [2] (first compound 0.1265 µM); 1.16 in experiment [2] (first compound 0.4 µM); 1.08 in experiment [2] (first compound 1.265 µM); 1.07 in experiment [2] (first compound 4 µM); 0.517 in experiment [3] (first compound 0.08 µM); 0.481 in experiment [3] (first compound 0.253 µM). The relative viability in experiment [3] (first compound 0.8 µM) came out at 0.626; in experiment [3] (first compound 2.53 µM) it was 0.515; in experiment [3] (first compound 8 µM) it was 0.563; in experiment [4] (first compound 0.04 µM), 1.13; in experiment [4] (first compound 0.1265 µM) it was 1.08; in experiment [4] (first compound 0.4 µM) it was 1.11. Moreover, the relative viability turned out to be 1.05 in experiment [4] (first compound 1.265 µM) and 1.09 in experiment [4] (first compound 4 µM).
As for NCI-H2126, the relative viability in experiment [1] (first compound 0.08 µM) was found to be 1.05; in experiment [1] (first compound 0.253 µM), 0.936; in experiment [1] (first compound 0.8 µM) it was 1.06; in experiment [1] (first compound 2.53 µM), 0.992; in experiment [1] (first compound 8 µM), 0.909; in experiment [2] (first compound 0.04 µM), 0.793. The relative viability in experiment [2] (first compound 0.1265 µM) came to 0.783; in experiment [2] (first compound 0.4 µM), 0.765; in experiment [2] (first compound 1.265 µM) it was 0.791; in experiment [2] (first compound 4 µM), 0.593; in experiment [3] (first compound 0.08 µM), 0.7; in experiment [3] (first compound 0.253 µM), 0.721. In addition, the relative viability in experiment [3] (first compound 0.8 µM) was found to be 0.725; in experiment [3] (first compound 2.53 µM), 0.695; in experiment [3] (first compound 8 µM), 0.659; in experiment [4] (first compound 0.04 µM), 1.41; in experiment [4] (first compound 0.1265 µM), 1.07; in experiment [4] (first compound 0.4 µM) it was 1.18. Moreover, the relative viability in experiment [4] (first compound 1.265 µM) came to 1.2; in experiment [4] (first compound 4 µM) it was 1.14.
Regarding NCI-H2170, the relative viability in experiment [1] (first compound 0.08 µM) worked out at 0.953; in experiment [1] (first compound 0.253 µM) it was 0.942; in experiment [1] (first compound 0.8 µM) it was 0.995; in experiment [1] (first compound 2.53 µM), 0.792; in experiment [1] (first compound 8 µM), 0.878; in experiment [2] (first compound 0.04 µM), 0.307. For the same cell line, the relative viability in experiment [2] (first compound 0.1265 µM) turned out to be 0.263; in experiment [2] (first compound 0.4 µM) it was 0.249; in experiment [2] (first compound 1.265 µM) it was 0.302; in experiment [2] (first compound 4 µM), 0.26; in experiment [3] (first compound 0.08 µM) it was 0.71; in experiment [3] (first compound 0.253 µM), 0.702. Also, the relative viability in experiment [3] (first compound 0.8 µM) was found to be 0.783; in experiment [3] (first compound 2.53 µM), 0.687; in experiment [3] (first compound 8 µM) it was 0.47; in experiment [4] (first compound 0.04 µM), 1.05; in experiment [4] (first compound 0.1265 µM), 0.981; in experiment [4] (first compound 0.4 µM), 0.975. Moreover, the figures for the relative viability in experiment [4] (first compound 1.265 µM) and in experiment [4] (first compound 4 µM) were 1.03 and 1.02, respectively.
